Legend:
[1] = target: Nitric oxide synthase 1 (Rattus norvegicus, UniProt P29476); assay type: tissue-based, Cerebellum; note: in other assays of this panel Not Active means under 50% inhibition at 10 µM
[2] = target: T1, Muscarinic acetylcholine receptor M5 (Homo sapiens, UniProt P08912); assay type: cell membranes, CHO-K1, Membrane; settings: cho-k1; note: in other assays of this panel Not Active means under 50% inhibition at 10 µM
T1 sequence (P08912 whole entry): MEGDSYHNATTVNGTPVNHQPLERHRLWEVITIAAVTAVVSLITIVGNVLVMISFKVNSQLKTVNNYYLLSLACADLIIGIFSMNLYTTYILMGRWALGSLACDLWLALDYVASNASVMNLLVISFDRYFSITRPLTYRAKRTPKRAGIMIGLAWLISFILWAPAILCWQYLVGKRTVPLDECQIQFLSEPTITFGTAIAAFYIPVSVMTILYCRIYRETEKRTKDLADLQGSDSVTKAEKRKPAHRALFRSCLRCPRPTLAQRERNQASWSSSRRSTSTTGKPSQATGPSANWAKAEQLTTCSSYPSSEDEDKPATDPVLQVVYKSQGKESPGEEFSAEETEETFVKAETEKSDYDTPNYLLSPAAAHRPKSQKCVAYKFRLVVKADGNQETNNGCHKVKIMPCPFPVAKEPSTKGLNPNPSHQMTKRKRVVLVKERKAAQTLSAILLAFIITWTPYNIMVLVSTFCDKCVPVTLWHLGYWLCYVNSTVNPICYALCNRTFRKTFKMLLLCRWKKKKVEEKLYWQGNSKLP

[3] = target: T2, C-X-C chemokine receptor type 1 (Homo sapiens, UniProt P25024); note: in other assays of this panel Not Active means under 50% inhibition at 10 µM
T2 sequence (P25024 whole entry): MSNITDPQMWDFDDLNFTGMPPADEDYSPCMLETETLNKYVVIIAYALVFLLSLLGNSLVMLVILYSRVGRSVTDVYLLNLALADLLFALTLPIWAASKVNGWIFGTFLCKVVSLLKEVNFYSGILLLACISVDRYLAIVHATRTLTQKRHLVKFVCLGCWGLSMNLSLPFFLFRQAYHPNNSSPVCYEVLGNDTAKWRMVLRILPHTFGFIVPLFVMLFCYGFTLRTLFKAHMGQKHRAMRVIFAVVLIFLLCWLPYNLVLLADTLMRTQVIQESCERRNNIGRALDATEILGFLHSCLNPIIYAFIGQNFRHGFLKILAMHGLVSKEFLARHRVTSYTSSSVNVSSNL

[4] = target: Beta-2 adrenergic receptor (Homo sapiens, UniProt P07550); experiment: DRUGMATRIX: Adrenergic beta2 radioligand binding (ligand: [3H] CGP-12177); assay type: cell membranes, CHO, Membrane; settings: cho; Not Active = under 50% inhibition at 10 µM
[5] = target: Carbonic anhydrase 2 (Homo sapiens, UniProt P00918); experiment: DRUGMATRIX: Carbonic Anhydrase II enzyme inhibition (substrate: 4-Nitrophenyl acetate (4-NPA)); assay type: tissue-based; settings: erythrocyte; Not Active = under 50% inhibition at 10 µM
[6] = target: Protein kinase C alpha type (Homo sapiens, UniProt P17252); assay type: cell-based; settings: sf9;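 note: inhibition of PKCalpha kinase activity measured in an enzyme assay with histone as the phosphorylation substrate; in other assays of this panel Not Active means under 50% inhibition at 10 µM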
[7] = target: Protein phosphatase 3 catalytic subunit alpha (Homo sapiens, UniProt Q08209); parameters: species or system Escherichia coli
[8] = target: Aldo-keto reductase family 1 member B1 (Rattus norvegicus, UniProt P07943); assay type: tissue-based, Lens of camera-type eye

Sequence of Nitric oxide synthase 1 (P29476 whole entry): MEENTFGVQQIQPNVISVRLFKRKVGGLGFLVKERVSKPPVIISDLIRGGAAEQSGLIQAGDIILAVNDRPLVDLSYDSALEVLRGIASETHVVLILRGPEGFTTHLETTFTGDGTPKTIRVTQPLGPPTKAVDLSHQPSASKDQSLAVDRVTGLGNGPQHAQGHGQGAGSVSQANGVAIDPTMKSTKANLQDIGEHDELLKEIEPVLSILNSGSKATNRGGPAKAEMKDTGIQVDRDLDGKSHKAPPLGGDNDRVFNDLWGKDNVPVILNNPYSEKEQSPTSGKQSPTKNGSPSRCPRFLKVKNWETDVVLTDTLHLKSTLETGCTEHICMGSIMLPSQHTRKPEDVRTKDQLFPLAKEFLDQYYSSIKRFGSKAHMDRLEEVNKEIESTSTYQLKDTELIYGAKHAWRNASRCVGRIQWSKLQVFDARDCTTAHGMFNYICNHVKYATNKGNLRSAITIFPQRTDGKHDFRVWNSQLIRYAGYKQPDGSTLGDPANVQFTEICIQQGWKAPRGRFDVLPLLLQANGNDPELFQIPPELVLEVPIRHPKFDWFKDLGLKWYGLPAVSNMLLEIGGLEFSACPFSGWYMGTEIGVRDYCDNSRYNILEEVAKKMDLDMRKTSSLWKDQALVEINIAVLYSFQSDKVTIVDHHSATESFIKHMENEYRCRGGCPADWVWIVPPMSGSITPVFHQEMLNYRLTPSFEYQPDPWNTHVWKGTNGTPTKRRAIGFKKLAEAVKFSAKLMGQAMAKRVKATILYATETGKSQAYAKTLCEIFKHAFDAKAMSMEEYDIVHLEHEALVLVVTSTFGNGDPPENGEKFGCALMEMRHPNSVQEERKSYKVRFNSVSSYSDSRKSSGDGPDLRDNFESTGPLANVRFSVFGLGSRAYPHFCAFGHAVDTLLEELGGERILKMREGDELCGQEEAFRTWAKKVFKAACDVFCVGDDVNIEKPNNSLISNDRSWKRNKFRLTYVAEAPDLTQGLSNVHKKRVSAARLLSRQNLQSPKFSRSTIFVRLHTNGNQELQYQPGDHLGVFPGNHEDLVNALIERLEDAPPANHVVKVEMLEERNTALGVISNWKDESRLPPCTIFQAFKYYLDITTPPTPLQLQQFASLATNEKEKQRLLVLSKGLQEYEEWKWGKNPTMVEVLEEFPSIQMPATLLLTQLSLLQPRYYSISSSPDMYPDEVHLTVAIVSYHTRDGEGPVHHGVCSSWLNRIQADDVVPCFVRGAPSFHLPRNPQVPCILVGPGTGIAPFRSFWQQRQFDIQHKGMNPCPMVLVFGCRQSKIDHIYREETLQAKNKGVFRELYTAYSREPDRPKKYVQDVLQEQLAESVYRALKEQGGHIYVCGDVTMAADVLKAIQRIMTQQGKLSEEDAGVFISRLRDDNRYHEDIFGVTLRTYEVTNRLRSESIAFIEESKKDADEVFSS

Cc1nnc2n1-c1ccc(Cl)cc1C(c1ccccc1)=NC2 [ALPRAZOLAM]
Not Active: IC50 [1] | IC50 [2] | IC50 [3] | IC50 [4] | IC50 [5] | Ki [6] | IC50 [7] | IC50 [8]

COC(=O)CCc1ccc(OCC(O)CNC(C)C)cc1 (centres undefined) [ESMOLOL]
Not Active: IC50 [1] | IC50 [2] | IC50 [3] | IC50 [4] | IC50 [5] | IC50 [6] | IC50 [7] | IC50 [8]

COc1ccc2cc3[n+](cc2c1OC)CCc1cc2c(cc1-3)OCO2.[Cl-] [BERBERINE CHLORIDE]
Not Active: IC50 [1] | IC50 [2] | IC50 [3] | IC50 [4] | IC50 [5] | IC50 [6] | IC50 [7] | IC50 [8]

NC(=O)C[S+]([O-])C(c1ccccc1)c1ccccc1 (centres undefined) [MODAFINIL]
Not Active: IC50 [1] | IC50 [2] | IC50 [3] | IC50 [4] | IC50 [5] | IC50 [6] | IC50 [7] | IC50 [8]

CC(C)=CCC/C(C)=C/CO [GERANIOL]
Not Active: IC50 [1] | IC50 [2] | IC50 [3] | IC50 [4] | IC50 [5] | IC50 [6] | IC50 [7] | IC50 [8]

NCCCC(O)(P(=O)(O)O)P(=O)(O)O [ALENDRONIC ACID]
Not Active: IC50 [1] | IC50 [2] | IC50 [3] | IC50 [4] | IC50 [5] | IC50 [6] | IC50 [7] | IC50 [8]

C[C@@H]1CC[C@@]2(OC1)O[C@H]1[C@@H](O)[C@H]3[C@@H]4CC[C@H]5C[C@@H](O[C@@H]6O[C@H](CO)[C@H](O[C@@H]7O[C@H](CO)C(O)[C@H](O[C@@H]8OC[C@@H](O)[C@H](O)[C@H]8O)[C@H]7O[C@@H]7O[C@H](CO)[C@H](O)[C@H](O[C@@H]8O[C@H](CO)[C@@H](O)[C@H](O)[C@H]8O)[C@H]7O)[C@H](O)[C@H]6O)[C@H](O)C[C@]5(C)[C@H]4CC[C@]3(C)[C@H]1[C@@H]2C (some centres undefined) [DIGITONIN]
Not Active: IC50 [1] | IC50 [2] | IC50 [3] | IC50 [4] | IC50 [5] | IC50 [6] | IC50 [7] | IC50 [8]

O=C1CN=C(c2ccccc2Cl)c2cc([N+](=O)[O-])ccc2N1 [CLONAZEPAM]
Not Active: IC50 [1] | IC50 [2] | IC50 [3] | IC50 [4] | IC50 [5] | IC50 [6] | IC50 [7] | IC50 [8]

AURANOFIN
Not Active: IC50 [1] | Ki [1] | IC50 [2] | Ki [2] | IC50 [3] | Ki [3] | IC50 [4] | Ki [4] | IC50 [5] | Ki [5] | IC50 [6] | Ki [6] | IC50 [7] | Ki [7] | IC50 [8] | Ki [8]

COC(=O)Nc1nc2ccc(C(=O)c3cccs3)cc2[nH]1 [NOCODAZOLE]
Not Active: IC50 [1] | IC50 [2] | IC50 [3] | IC50 [4] | IC50 [5] | IC50 [6] | IC50 [7] | IC50 [8]

C[C@H]1O[C@@H](n2cc(F)c(=O)[nH]c2=O)[C@H](O)[C@@H]1O [DOXIFLURIDINE]
Not Active: IC50 [1] | IC50 [2] | IC50 [3] | IC50 [4] | IC50 [5] | IC50 [6] | IC50 [7] | IC50 [8]

CC(C(=O)O)c1ccc2oc(-c3ccc(Cl)cc3)nc2c1 (centres undefined) [BENOXAPROFEN]
Not Active: IC50 [1] | IC50 [2] | IC50 [3] | IC50 [4] | IC50 [5] | IC50 [6] | IC50 [7] | IC50 [8]

GADOPENTETATE DIMEGLUMINE
Not Active: IC50 [1] | Ki [1] | IC50 [2] | Ki [2] | IC50 [3] | Ki [3] | IC50 [4] | Ki [4] | IC50 [5] | Ki [5] | IC50 [6] | Ki [6] | IC50 [7] | Ki [7] | IC50 [8] | Ki [8]

Nc1ccc2c3c(cccc13)C(=O)NC2=O
Not Active: IC50 [1] | IC50 [2] | IC50 [3] | IC50 [4] | IC50 [5] | IC50 [6] | IC50 [7] | IC50 [8]

C[n+]1ccccc1/C=N/O.[Cl-] [PRALIDOXIME CHLORIDE]
Not Active: IC50 [1] | IC50 [2] | IC50 [3] | IC50 [4] | IC50 [5] | IC50 [6] | IC50 [7] | IC50 [8]

NNc1nncc2ccccc12 [HYDRALAZINE]
Not Active: IC50 [1] | IC50 [2] | IC50 [3] | IC50 [4] | IC50 [5] | IC50 [6] | IC50 [7] | IC50 [8]

O=c1cnn([C@@H]2O[C@H](CO)[C@@H](O)[C@H]2O)c(=O)[nH]1 [6-AZAURIDINE]
Not Active: IC50 [1] | IC50 [2] | IC50 [3] | IC50 [4] | IC50 [5] | IC50 [6] | IC50 [7] | IC50 [8]

Cn1c(=O)c2c(ncn2CC(O)CO)n(C)c1=O (centres undefined) [DYPHYLLINE]
Not Active: IC50 [1] | IC50 [2] | IC50 [3] | IC50 [4] | IC50 [5] | IC50 [6] | IC50 [7] | IC50 [8]

O=c1cc(N2CCOCC2)oc2c(-c3ccccc3)cccc12 [LY-294002]
Not Active: IC50 [1] | IC50 [2] | IC50 [3] | IC50 [4] | IC50 [5] | IC50 [6] | IC50 [7] | IC50 [8]

C[C@@H]1C[C@H]2[C@@H]3CCC4=CC(=O)C=C[C@]4(C)[C@@]3(F)[C@@H](O)C[C@]2(C)[C@H]1C(=O)CO [DESOXIMETASONE]
Not Active: IC50 [1] | IC50 [2] | IC50 [3] | IC50 [4] | IC50 [5] | IC50 [6] | IC50 [7] | IC50 [8]

CC(C)(C)NC(=O)[C@H]1CC[C@H]2[C@@H]3CC[C@H]4NC(=O)C=C[C@]4(C)[C@H]3CC[C@]12C [FINASTERIDE]
Not Active: IC50 [1] | IC50 [2] | IC50 [3] | IC50 [4] | IC50 [5] | IC50 [6] | IC50 [7] | IC50 [8]

CCn1cc(C(=O)O)c(=O)c2cnc(N3CCCC3)nc21 [PIROMIDIC ACID]
Not Active: IC50 [1] | IC50 [2] | IC50 [3] | IC50 [4] | IC50 [5] | IC50 [6] | IC50 [7] | IC50 [8]

CC1(C)S[C@@H]2[C@H](NC(=O)[C@H](N)c3ccccc3)C(=O)N2[C@H]1C(=O)O [AMPICILLIN]
Not Active: IC50 [1] | IC50 [2] | IC50 [3] | IC50 [4] | IC50 [5] | IC50 [6] | IC50 [7] | IC50 [8]

CCN(CC)CCOCCC1=CCC2CC1C2(C)C (centres undefined) [MYRTECAINE]
Not Active: IC50 [1] | IC50 [2] | IC50 [3] | IC50 [4] | IC50 [5] | IC50 [6] | IC50 [7] | IC50 [8]

CCCNCC(O)COc1ccccc1C(=O)CCc1ccccc1 (centres undefined) [PROPAFENONE]
Not Active: IC50 [1] | IC50 [2] | IC50 [3] | IC50 [5] | IC50 [6] | IC50 [7] | IC50 [8]

CC(C)NCC(O)COc1cccc2[nH]ccc12 (centres undefined) [PINDOLOL]
Not Active: IC50 [1] | IC50 [2] | IC50 [3] | IC50 [5] | IC50 [6] | IC50 [7] | IC50 [8]

CN1[C@@H]2CC[C@H]1C[C@@H](OC(=O)C(CO)c1ccccc1)C2 (some centres undefined) [ATROPINE]
Not Active: IC50 [1] | IC50 [3] | IC50 [4] | IC50 [5] | IC50 [6] | IC50 [7] | IC50 [8]
